Results from patent publication US8846653B2, “Delta-tocotrienol treatment and prevention of pancreatic cancer” (University of South Florida, priority 2006, dated 2014).

Tests used:
Type in all cases: cell-based, human
[1] = system: SW1990 pancreatic cancer cells; assay: MTS assay of SW1990 cultures, single 50 μM dose; settings: SW1990, 50 μM
Description: SW1990 pancreatic cancer cells […] were cultured in complete DMEM media containing 10% fetal bovine serum (FBS) and 1% penicillin-streptomycin, and 1% L-glutamine. BxPc-3 pancreatic cancer cells were cultured in complete RPMI media containing 10% fetal bovine serum (FBS), and 1% penicillin-streptomycin, 1% HEPES buffer, 1% sodium pyruvate and 1% L-glutamine. HPDE6-C7 cells were cultured in serum-free keratinocyte SFM media. All cells were maintained at 37° C. in a humidified incubator with 5% CO2. The cells were treated with a single 50 μM dose of vehicle (ethanol extracted olive oil), T3 alpha (alpha tocotrienol), T3 beta (beta tocotrienol), T3 gamma (gamma tocotrienol), T3 delta (delta tocotrienol), T alpha (alpha tocopherol), T beta (beta tocopherol), TS (tocopherol succinate), GG (geranylgeraniol), SA (succinic acid). A control culture (i.e., only vehicle with no treatment) was grown alongside the treatments for comparison. Cell viability was measured using MTS assay at preselect times of 24, 48, or 72 hours after treatment.

MiaPaCa-2 cells = assay: MTS assay of MiaPaCa2 cultures, single 50 μM dose; settings: MiaPaCa2, 50 μM
Description: MiaPaCa-2 cells were cultured in complete DMEM media containing 10% fetal bovine serum (FBS) and 1% penicillin-streptomycin, and 1% L-glutamine. BxPc-3 pancreatic cancer cells were cultured in complete RPMI media containing 10% fetal bovine serum (FBS), and 1% penicillin-streptomycin, 1% HEPES buffer, 1% sodium pyruvate and 1% L-glutamine HPDE6-C7 cells were cultured in serum-free keratinocyte SFM media. All cells were maintained at 37° C. in a humidified incubator with 5% CO2. The cells were treated with a single 50 μM dose of vehicle (vehicle only, may be a solvent), T3 alpha (alpha tocotrienol), T3 beta (beta tocotrienol), T3 gamma (gamma tocotrienol), T3 delta (delta tocotrienol), T alpha (alpha tocopherol), T beta (beta tocopherol), TS (tocopherol succinate), GG (geranylgeraniol), SA (succinic acid). A control (no treatment) culture was grown alongside the treatments for comparison. […]

BXPC3 cells = assay: MTT assay of BXPC3 cultures, single 50 μM dose; settings: BXPC3, 50 μM; for MTT assay result, av-blank: average minus blank
Description: BXPC3 cells were cultured in complete […] media containing 10% fetal bovine serum (FBS) and 1% penicillin-streptomycin, and 1% L-glutamine. BxPc-3 pancreatic cancer cells were cultured in complete RPMI media containing 10% fetal bovine serum (FBS), and 1% penicillin-streptomycin, 1% HEPES buffer, 1% sodium pyruvate and 1% L-glutamine HPDE6-C7 cells were cultured in serum-free keratinocyte SFM media. All cells were maintained at 37° C. in a humidified incubator with 5% CO2. The cells were treated with a single 50 μM dose of vehicle (vehicle only, may be a solvent), T3 alpha (alpha tocotrienol), T3 beta (beta tocotrienol), T3 gamma (gamma tocotrienol), T3 delta (delta tocotrienol), T alpha (alpha tocopherol), T beta (beta tocopherol), TS (tocopherol succinate), GG (geranylgeraniol), SA (succinic acid). A control (no treatment) culture was grown alongside the treatments for comparison. Cell viability was measured using MTT assay at preselect times of 48 or 120 hours after treatment.

Q: With `O=C(O)CCC(=O)O` [SA, succinic acid] as the compound, how does the “rel amnt (relative value set to the control)” value ([1]; 24 hours) read?
A: 109

Q: What about the “MTS assay result, run 1” value ([1]; 24 hours) of the same compound?
A: 0.146

Q: What about the “MTS assay result, run 2” value ([1]; 24 hours) of the same compound?
A: 0.154

Q: What about the “MTS assay result, run 3” value ([1]; 24 hours) of the same compound?
A: 0.15

Q: And the “MTS assay result, run 4” value ([1]; 24 hours)?
A: 0.152

Q: What about the “MTS assay result, run 5” value ([1]; 24 hours) of the same compound?
A: 0.172

Q: And the “MTS assay result, run 6” value ([1]; 24 hours)?
A: 0.165

Q: And the “MTS assay result, run 7” value ([1]; 24 hours)?
A: 0.179

Q: And the “MTS assay result, run 8” value ([1]; 24 hours)?
A: 0.165

Q: And the “MTS assay result, run 9” value ([1]; 24 hours)?
A: 0.160

Q: And the “rel amnt (relative value set to the control)” value ([1]; 48 hours)?
A: 105

Q: And the “MTS assay result, run 1” value ([1]; 48 hours)?
A: 0.122

Q: What about the “MTS assay result, run 2” value ([1]; 48 hours) of the same compound?
A: 0.149

Q: What about the “MTS assay result, run 3” value ([1]; 48 hours) of the same compound?
A: 0.17

Q: And the “MTS assay result, run 4” value ([1]; 48 hours)?
A: 0.138

Q: What about the “MTS assay result, run 5” value ([1]; 48 hours) of the same compound?
A: 0.177

Q: And the “MTS assay result, run 6” value ([1]; 48 hours)?
A: 0.159

Q: And the “MTS assay result, run 7” value ([1]; 48 hours)?
A: 0.18

Q: And the “MTS assay result, run 8” value ([1]; 48 hours)?
A: 0.178

Q: And the “MTS assay result, run 9” value ([1]; 48 hours)?
A: 0.159

Q: What about the “rel amnt (relative value set to the control)” value ([1]; 72 hours) of the same compound?
A: 113

Q: And the “MTS assay result, run 1” value ([1]; 72 hours)?
A: 0.596

Q: What about the “MTS assay result, run 2” value ([1]; 72 hours) of the same compound?
A: 0.547

Q: What about the “MTS assay result, run 3” value ([1]; 72 hours) of the same compound?
A: 0.57

Q: What about the “MTS assay result, run 4” value ([1]; 72 hours) of the same compound?
A: 0.515

Q: What about the “MTS assay result, run 5” value ([1]; 72 hours) of the same compound?
A: 0.544

Q: And the “MTS assay result, run 6” value ([1]; 72 hours)?
A: 0.44

Q: What about the “MTS assay result, run 7” value ([1]; 72 hours) of the same compound?
A: 0.4

Q: And the “MTS assay result, run 8” value ([1]; 72 hours)?
A: 0.427

Q: And the “MTS assay result, run 9” value ([1]; 72 hours)?
A: 0.504

Q: What about the “rel amt (relative value set to the control)” value (MiaPaCa-2 cells; 24 hours) of the same compound?
A: 105

Q: And the “MTS assay result, run 1” value (MiaPaCa-2 cells; 24 hours)?
A: 0.24

Q: What about the “MTS assay result, run 2” value (MiaPaCa-2 cells; 24 hours) of the same compound?
A: 0.248

Q: And the “MTS assay result, run 3” value (MiaPaCa-2 cells; 24 hours)?
A: 0.25

Q: What about the “MTS assay result, run 4” value (MiaPaCa-2 cells; 24 hours) of the same compound?
A: 0.245

Q: And the “MTS assay result, run 5” value (MiaPaCa-2 cells; 24 hours)?
A: 0.236

Q: What about the “MTS assay result, run 6” value (MiaPaCa-2 cells; 24 hours) of the same compound?
A: 0.219

Q: And the “MTS assay result, run 7” value (MiaPaCa-2 cells; 24 hours)?
A: 0.214

Q: What about the “MTS assay result, run 8” value (MiaPaCa-2 cells; 24 hours) of the same compound?
A: 0.204

Q: And the “MTS assay result, run 9” value (MiaPaCa-2 cells; 24 hours)?
A: 0.232

Q: What about the “rel amt (relative value set to the control)” value (MiaPaCa-2 cells; 48 hours) of the same compound?
A: 90

Q: What about the “MTS assay result, run 1” value (MiaPaCa-2 cells; 48 hours) of the same compound?
A: 0.334

Q: And the “MTS assay result, run 2” value (MiaPaCa-2 cells; 48 hours)?
A: 0.335

Q: And the “MTS assay result, run 3” value (MiaPaCa-2 cells; 48 hours)?
A: 0.333

Q: And the “MTS assay result, run 4” value (MiaPaCa-2 cells; 48 hours)?
A: 0.304

Q: And the “MTS assay result, run 5” value (MiaPaCa-2 cells; 48 hours)?
A: 0.32

Q: What about the “MTS assay result, run 6” value (MiaPaCa-2 cells; 48 hours) of the same compound?
A: 0.294

Q: And the “MTS assay result, run 7” value (MiaPaCa-2 cells; 48 hours)?
A: 0.352

Q: And the “MTS assay result, run 8” value (MiaPaCa-2 cells; 48 hours)?
A: 0.348

Q: What about the “MTS assay result, run 9” value (MiaPaCa-2 cells; 48 hours) of the same compound?
A: 0.328

Q: And the “rel amt (relative value set to the control)” value (MiaPaCa-2 cells; 72 hours)?
A: 114

Q: And the “MTS assay result, run 1” value (MiaPaCa-2 cells; 72 hours)?
A: 0.596

Q: And the “MTS assay result, run 2” value (MiaPaCa-2 cells; 72 hours)?
A: 0.547

Q: And the “MTS assay result, run 3” value (MiaPaCa-2 cells; 72 hours)?
A: 0.566

Q: And the “MTS assay result, run 4” value (MiaPaCa-2 cells; 72 hours)?
A: 0.515

Q: What about the “MTS assay result, run 5” value (MiaPaCa-2 cells; 72 hours) of the same compound?
A: 0.544

Q: What about the “MTS assay result, run 6” value (MiaPaCa-2 cells; 72 hours) of the same compound?
A: 0.44

Q: What about the “MTS assay result, run 7” value (MiaPaCa-2 cells; 72 hours) of the same compound?
A: 0.397

Q: What about the “MTS assay result, run 8” value (MiaPaCa-2 cells; 72 hours) of the same compound?
A: 0.427

Q: And the “MTS assay result, run 9” value (MiaPaCa-2 cells; 72 hours)?
A: 0.504

Q: What about the “rel amt (relative value set to the control)” value (BXPC3 cells; 48 hours) of the same compound?
A: 95

Q: What about the “MTT assay result, av-blank” value (BXPC3 cells; 48 hours) of the same compound?
A: 0.218

Q: And the “MTT assay result, av (average)” value (BXPC3 cells; 48 hours, average of 7 runs)?
A: 0.267

Q: And the “MTT assay result, run 1” value (BXPC3 cells; 48 hours)?
A: 0.273

Q: What about the “MTT assay result, run 2” value (BXPC3 cells; 48 hours) of the same compound?
A: 0.28

Q: What about the “MTT assay result, run 3” value (BXPC3 cells; 48 hours) of the same compound?
A: 0.271

Q: What about the “MTT assay result, run 4” value (BXPC3 cells; 48 hours) of the same compound?
A: 0.271

Q: What about the “MTT assay result, run 5” value (BXPC3 cells; 48 hours) of the same compound?
A: 0.254

Q: What about the “MTT assay result, run 6” value (BXPC3 cells; 48 hours) of the same compound?
A: 0.263

Q: What about the “MTT assay result, run 7” value (BXPC3 cells; 48 hours) of the same compound?
A: 0.255

Q: What about the “rel amt (relative value set to the control)” value (BXPC3 cells; 120 hours (5 days)) of the same compound?
A: 74

Q: What about the “MTT assay result, av-blank” value (BXPC3 cells; 120 hours (5 days)) of the same compound?
A: 0.428

Q: And the “MTT assay result, av” value (BXPC3 cells; 120 hours (5 days), average of 7 runs)?
A: 0.483

Q: What about the “MTT assay result, run 1” value (BXPC3 cells; 120 hours (5 days)) of the same compound?
A: 0.456

Q: What about the “MTT assay result, run 2” value (BXPC3 cells; 120 hours (5 days)) of the same compound?
A: 0.471

Q: And the “MTT assay result, run 3” value (BXPC3 cells; 120 hours (5 days))?
A: 0.497

Q: And the “MTT assay result, run 4” value (BXPC3 cells; 120 hours (5 days))?
A: 0.487

Q: What about the “MTT assay result, run 5” value (BXPC3 cells; 120 hours (5 days)) of the same compound?
A: 0.493

Q: And the “MTT assay result, run 6” value (BXPC3 cells; 120 hours (5 days))?
A: 0.48

Q: What about the “MTT assay result, run 7” value (BXPC3 cells; 120 hours (5 days)) of the same compound?
A: 0.494
